Results taken from patent US20130331331A1, “HEXAPEPTIDE WITH IMPROVED ACTIVITY IN THE REPAIR OF CELLULAR DNA OF DERMAL CELLS” (priority 2011, published 2013).
Non-standard residues stand in square brackets, D forms with d. Nle = CCCC[C@H](N)C(=O)O

Columns and labels:
Assay type in all cases: cell-based, human
melanocytes strain 1505b = assay: cAMP levels, radioimmunoassay, strain 1505b; conditions: 1 nM, 45 min, 0.1 mM IBMX
Method: Dose-response experiments were carried out on three melanocytic strains, namely strains 1513c, 1505b and 105c melanocytes were treated with 1 pM-10 nM CUV9900 or NDP-MSH, or with 0.1-10 nM MSH for 45 minutes in the presence of 0.1 mM isobutyl methylxanthine (IBMX). The results obtained from strain 1513c are shown in FIG. 3, the results obtained from strain 1505b are shown in FIG. 5a and the results obtained from strain 105c are shown in FIG. 5b. The strains 1505b and 1513c were obtained from the same human adult while the strain 105c was obtained from another human adult. Cyclic AMP is the second messenger for the melanocortin-1 receptor, and assessment is usually performed indicating cellular activity reflective of melanogenesis. Cyclic AMP levels were determined using ^125I-labeled radioimmunoassay kit (Perkin Elmer, Waltham, Mass.), in human melanocytes that were treated with 0 (control), 0.1-10.0 nM α-MSH, or 0.001-10 nM NDP-MSH or 0.001-10.0 nM CUV 9900 for […]. in the presence of 0.1 mM IBMX, a phosphodiesterase inhibitor to prevent cAMP degradation. Triplicate wells were included in each group, and duplicate samples from each well were assayed for cAMP levels. Each data point is the mean percent of control of 6 determinations/group±S.E.

melanocyte strain 1505b [1] = assay: Tyrosinase activity as a measure of stability / residual effect, strain 1505b
Method: To determine the residual effect of CUV9900, as compared to NDP-MSH and α-MSH, on tyrosinase activity, melanocytes were treated with either CUV9900 or NDP-MSH at the concentrations previously described for a total of 3 days. Tyrosinase activity was measured at the end of the 3 days of treatment, and 2 and 4 days after maintenance of the melanocytes in the complete absence of any treatment.
With continued reference to FIGS. 7, 8 and 9, to determine the stability of CUV9900 versus that of NDP-MSH and α-MSH, melanocytes were treated with 1 nM of each peptide, namely with CUV9900, NDP-MSH and α-MSH, for a total of 6 days, or with 1 nM peptides that were incubated for 5 hours at 37° C. prior to addition to the cultures, every other day, for a total of 6 days. Tyrosinase activity was measured at the end of treatment. In the experiments, cell number represents the mean percent of control of 3 determinations/group±SE, and tyrosinase activity data represent the mean percent of control of 6 determinations±S.E. It should be noted that for the sake of reproducibility the experiment of strain 1513c of FIG. 9 was performed once more 6 months later than the experiment of FIG. 7.
Melanocytes were treated for 3 days with the designated concentrations of CUV9900, NDP-MSH, or MSH, then maintained in absence of peptides for 4 days. Tyrosinase activity was determined 3 days after treatment.
Tyrosinase activity as a measure of stability is shown in Tables 4 to 6 below, wherein Table 4 is based on data derived from FIG. 7, Table 5 is based on data derived from FIG. 9, and Table 6 is based on data derived from FIG. 8: […]

melanocyte strain 1505b [2] = assay: Cell proliferation as a measure of stability, strain 1505b

- superior tyrosinase activity in comparison to MSH (melanocyte strain 1505b [1]): 18.7%
- superior tyrosinase activity in comparison to NDP-MSH (melanocyte strain 1505b [1]): 32.1%
- residual effects on tyrosinase activity 4 days after peptide removal, CUV9900 vs MSH (melanocyte strain 1505b [1]; 0.1 nM CUV9900 vs 1 nM MSH): equal
Substance: Ac-Nle-Glu His-D-Phe-Arg-Trp-NH2 (Ac-[Nle]EH[dF]RW-NH2; SMILES CCCC[C@H](NC(C)=O)C(=O)N[C@@H](CCC(=O)O)C(=O)N[C@@H](Cc1c[nH]cn1)C(=O)N[C@H](Cc1ccccc1)C(=O)N[C@@H](CCCNC(=N)N)C(=O)N[C@@H](Cc1c[nH]c2ccccc12)C(N)=O) [CUV9900, hexapeptide alpha-MSH analogue]
- cAMP, potency comparison (melanocytes strain 1505b): more potent than MSH
- more stable in comparison to MSH (cell proliferation) (melanocyte strain 1505b [2]): 2.6%
- more stable than NDP-MSH (cell proliferation) (melanocyte strain 1505b [2]): 10.16%
- Cell proliferation (cell number), column 2 (melanocyte strain 1505b [2]; 1 nM): 120% of control
- Cell proliferation (cell number), column 3 (melanocyte strain 1505b [2]; 1 nM): 108% of control
